Data from patent US11634381B2, “RUNX2 transcription factor inhibitors and uses thereof” (University of Maryland, Baltimore, priority 2015, dated 2023).
Where a SMILES comes first, the peptide text is derived from it. The star is where a group is joined. Cbz = O=C(OCc1ccccc1)*

B1: recombinant soluble E-Cadherin: recombinant soluble E-Cadherin (rsE-Cad) (protein, UniProt P12830 155-709, looked up)
extracellular domain: DWVIPPISCPENEKGPFPKNLVQIKSNKDKEGKVFYSITGQGADTPPVGVFIIERETGWLKVTEPLDRERIATYTLFSHAVSSNGNAVEDPMEILITVTDQNDNKPEFTQEVFKGSVMEGALPGTSVMEVTATDADDDVNTYNAAIAYTILSQDPELPDKNMFTINRNTGVISVVTTGLDRESFPTYTLVVQAADLQGEGLSTTATAVITVTDTNDNPPIFNPTTYKGQVPENEANVVITTLKVTDADAPNTPAWEAVYTILNDDGGQFVVTTNPVNNDGILKTAKGLDFEAKQQYILHVAVTNVVPFEVSLTTSTATVTVDVLDVNEAPIFVPPEKRVEVSEDFGVGQEITSYTAQEPDTFMEQKITYRIWRDTANWLEINPDTGAISTRAELDREDFEHVKNSTYTALIIATDNGSPVATGTGTLLLILSDVNDNAPIPEPRTIFFCERNPKPQVINIIDADLPPNTSPFTAELTHGASANWTIQYNDPTQESIILKPKMALEVGDYKINLKLMDNQNKDQVTTLEVSVCDCEGAAGVCRKAQPVEAGLQIPA
modifications: extracellular domain

Legend:
RUNX2 = RUNX2 (Homo sapiens, UniProt Q13950); test: Western blot of RUNX2, RUNX1, CBF-β; type: cell-based; design: endogenous in cells; host or cells: MDA-231, MDA-468; settings: MDA-468 and MCF7 cells, MG132 10 μM alone, 18 hrs
Chain of RUNX2 (Q13950 whole entry): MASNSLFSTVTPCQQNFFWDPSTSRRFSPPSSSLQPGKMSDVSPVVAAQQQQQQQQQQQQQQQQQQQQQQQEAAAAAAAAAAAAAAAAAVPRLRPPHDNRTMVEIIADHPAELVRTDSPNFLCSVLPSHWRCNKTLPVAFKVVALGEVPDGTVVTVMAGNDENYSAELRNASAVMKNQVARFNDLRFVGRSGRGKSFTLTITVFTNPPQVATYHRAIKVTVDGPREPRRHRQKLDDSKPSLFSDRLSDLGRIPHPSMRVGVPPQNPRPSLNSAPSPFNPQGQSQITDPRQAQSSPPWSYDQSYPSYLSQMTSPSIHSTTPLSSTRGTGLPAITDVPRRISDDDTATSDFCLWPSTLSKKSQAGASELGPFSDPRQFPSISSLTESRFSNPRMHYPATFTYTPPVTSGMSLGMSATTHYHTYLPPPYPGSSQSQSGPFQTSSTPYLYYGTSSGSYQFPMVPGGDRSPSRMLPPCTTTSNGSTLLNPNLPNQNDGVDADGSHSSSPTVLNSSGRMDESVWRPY
Protocol: Whole cell lysates extracted in RIPA buffer (Upstate) were separated on 4-12% gradient SDS-PAGE and transferred to nitrocellulose membrane. The blots were incubated with specific antibodies for each protein overnight at 4° C. After antibody washing, the blots were reacted with their respective secondary antibody and detected with enhanced chemiluminescence reagents (Millipore) according to the supplier's protocol. Antibodies for proteins were purchased as below. RUNX1, RUNX2, CBF-β, ubiquitin and caspase-3 (Cell Signaling Technologies), S451-p-RUNX2 (Bioss Gentaur, Belgium), RUNX3 and Glut-1 (Millipore, Calif.), β-actin and RUNX2 antibody for IHC (Sigma-Aldrich), and Ki-67 for IHC (Bethyl Laboratories, Inc, TX).

TAZ = test: siRNA mediated knockdown of TAZ (Western blot); type: cell-based, human; settings: MCF7 Tet.OFF cells, low or high RUNX2
Protocol: TAZ knockdown was performed in MCF7 Tet.OFF cells using Custom 23 mer desalted siRNA oligonucleotides from Sigma and a Universal Scrambled Negative Control siRNA Duplex from Origene (Catalog No. SR30004): TAZ siRNA #1: 5′-GACA […]-3′ (SEQ ID NO: 1), TAZ siRNA #2: 5′-[…] GAACAUU-3′ (SEQ ID NO: 2) and TAZ siRNA #3: 5′-[…]-3′ (SEQ ID NO: 3). Briefly, MCF7 Tet.OFF cells were grown in the absence or presence of doxycycline for 3 days and then transfected with corresponding siRNA's using Lipofectamine-2000 (Life Technologies). RIPA extracts were obtained 48 hr post transfection and total protein was analyzed by Western blot (see above) and probed for TAZ protein expression. Protein levels were normalized to actin and quantified using NIH Image-J software.

MCF7 RUNX2 Tet.OFF cells = test: Suspension culture tumorsphere formation; type: cell-based, human; settings: TAZ siRNA, TGFβ, 12 days
Protocol: MCF7 Tet.OFF cells were grown in the presence (+Dox, RUNX2 negative) or absence (−Dox, RUNX2 positive) of doxycycline for 3 days. Cells were then scraped and counted. 60,000 cells were plated in each well of a 6-well ultra-low attachment plate (Corning; 3471) in Promocell Basal Medium (Promocell; c-22211) complete with Supplement Mix (Promocell; c-39216). Cells were then treated with or without 2 ng/mL TGFβ (R&D Systems; 240-B-002). After growth for 10-15 days, wells were photographed and tumorsphere diameters were measured from photographic images (mm). Colony diameters were calculated using the formula: (L+W)/2. Representative photographs were obtained at 4× magnification. […] For TAZ siRNA knockdown experiments, TAZ siRNA was transfected (as below) into MCF7 Tet.OFF cells and 24 hr later cells were scraped and placed into suspension as described above. Small-Interfering RNA (siRNA) pool targeting RUNX1, RUNX2, and non-targeting control were purchased from Dharmacon, and transfected into cells using RNAiMAX Reagent (Invitrogen). Western blot analysis was performed 48 hrs after transfection.

Lats1/2 = Lats1/2 phosphorylation (Hippo signaling); type: cell-based, human; settings: HCC1428 cells, rsE-Cad 24 hr
Protocol: In FIG. 22A HCC1428 luminal BC cells that express E-Cadherin were treated with recombinant soluble E-Cadherin (rsE-Cad) for 24 hr and total cell extracts were analyzed for phosphorylation of the Lats1/2 tumor suppressors. Phospho.Lats1/2 and total Lats1/2 levels declined with rsE-Cad treatment consistent with TAZ translocation to the nucleus, where it acts as an oncogene with RUNX2. […] MCF7 cells expressing RUNX2 (Tet.OFF) were treated with compound 1 drug for 24 hours and total cell extracts were analyzed for phosphp.Lats1/2, total Lats1/2, and RUNX2 expression.

| Molecule | RUNX2 protein stability (RUNX2) | TAZ knockdown to levels of control (scrambled siRNA) (TAZ) | tumorsphere size (MCF7 RUNX2 Tet.OFF cells; RUNX2 negative cells) | tumorsphere size (MCF7 RUNX2 Tet.OFF cells; RUNX2 positive cells) | phosphorylation of the Lats1/2 tumor suppressors (Lats1/2) |
| --- | --- | --- | --- | --- | --- |
| CC(C)C[C@@H](C=O)NC(=O)[C@H](CC(C)C)NC(=O)[C@H](CC(C)C)NC(=O)OCc1ccccc1 [MG132, reference compound] (Cbz-Leu-Leu-Leu-aldehyde) | increased |  |  |  |  |
| 5′-GACA UGAGAUCCAUCACUAUU-3′ (GACAUGAGAUCCAUCACUAUU; listed as RNA, chemistry not given here) [TAZ siRNA #1] |  | 70-80% | 4.85±2.11 mm | 4.43±1.47 mm |  |
| 5′-AAGCCUAGCUCGUGGCGGAUU-3′ (listed as RNA, chemistry not given here) [TAZ siRNA #3] |  | 30% | no significant effect | 6.05±3.12 mm |  |
| 5′-GGACAAACACCCAU GAACAUU-3′ (GGACAAACACCCAUGAACAUU; listed as RNA, chemistry not given here) [TAZ siRNA #2] |  | 50-70% | 5.16±1.91 mm | 5.35±2.42 mm |  |
| B1 |  |  |  |  | decline in phosphorylation |
